Converted amounts (≈) assume the structure as drawn. Like-named read-outs stand apart in the source and are kept apart here.
What was measured:
[1] = tested on: SARS-Related Coronavirus 2 Isolate USA-WA1/2020; assay type: cell-based, SARS-COV-2; conditions: treatment 2 hours pre-infection; for Mean Log10 Reduction: Vero E6, MOI=0.1, 2 days, vs untreated control

SMILES | Mean Log10 Reduction ([1]; 1 μM) | Mean Log10 Reduction ([1]; 2 μM) | Mean Log10 Reduction ([1]; 4 μM) | Mean Log10 Reduction ([1]; 8 μM) | antiviral activity against SARS-COV-2 ([1]; 1-8 μM, Vero E6) | solubility (physchem; organic solvent or mixture) | solubility (physchem; water) | Mean Log10 Reduction ([1]; 10 μM)
CN1CCN(CCCc2ccc(C(c3ccccc3)C34CC5CC(CC(C5)C3)C4)cc2)CC1 (stereo not drawn) [AV1066, 1-Methyl-4-[3-[4-(phenyltricyclo[3.3.1.1^3,7]dec-1-ylmethyl)phenyl]propyl]piperazine] | 0.00 Log10 | 0.10 Log10 | 1.33 Log10 | 4.89 Log10 | exhibited antiviral activity against SARS-COV-2 in a dose dependent manner | 21 mg/mL (≈ 47.4 mM) | 4 mg/mL (≈ 9.04 mM) | 
CCC(CC)COC(=O)[C@H](C)N[P@](=O)(OC[C@H]1O[C@@](C#N)(c2ccc3c(N)ncnn23)[C@H](O)[C@@H]1O)Oc1ccccc1 [Remdesivir, reference compound] |  |  |  |  |  | 100 mg/mL (≈ 166 mM) |  | 5.72 Log10
